Test results published in ChEMBL document CHEMBL5518215, “Unlocking Antibacterial Potential: Key-Site-Based Regulation of Antibacterial Spectrum of Peptides” (J Med Chem, 2024).

What was measured:
Escherichia coli [1] = test: Antimicrobial activity against Escherichia coli 25922 assessed as absence bacterial growth measured after 18 to 24 hrs incubation in presence of FeCl3 by NCCLS method; assay type: functional; conditions: time 18-24 hrs
[2] = Hemolytic activity in human RBC at effective concentration at 128 uM measured after 1 hr by microplate reader relative to control; assay type: toxicity, cell-based, Erythrocyte; conditions: human red blood cells (erythrocytes), read-out: Activity
Listeria monocytogenes [3] = test: Antimicrobial activity against Listeria monocytogenes 1.10753 assessed as absence bacterial growth measured after 18 to 24 hrs incubation by NCCLS method; assay type: functional; conditions: time 18-24 hrs
[4] = tested on: Staphylococcus epidermidis; test: Antimicrobial activity against Staphylococcus epidermidis 12228 assessed as bacterial killing measured after 16 hrs incubation; assay type: functional
Escherichia coli [5] = test: Antimicrobial activity against Escherichia coli K88 assessed as absence bacterial growth measured after 18 to 24 hrs incubation by NCCLS method; assay type: functional; conditions: time 18-24 hrs
Escherichia coli [6] = test: Antimicrobial activity against Escherichia coli 25922 assessed as absence bacterial growth measured after 18 to 24 hrs incubation by NCCLS method; assay type: functional; conditions: time 18-24 hrs
Staphylococcus aureus [7] = test: Antimicrobial activity against Staphylococcus aureus 25923 assessed as bacterial killing measured after 16 hrs incubation; assay type: functional
Escherichia coli [8] = test: Antimicrobial activity against Escherichia coli 25922 assessed as absence bacterial growth measured after 18 to 24 hrs incubation in presence of KCl by NCCLS method; assay type: functional; conditions: time 18-24 hrs
Acinetobacter baumannii [9] = test: Antimicrobial activity against Acinetobacter baumannii 1.6769 assessed as absence bacterial growth measured after 18 to 24 hrs incubation by NCCLS method; assay type: functional; conditions: time 18-24 hrs
Salmonella typhimurium [10] = test: Antimicrobial activity against Salmonella typhimurium 14028 assessed as absence bacterial growth measured after 18 to 24 hrs incubation by NCCLS method; assay type: functional, Salmonella enterica subsp. enterica serovar Typhimurium; conditions: Salmonella enterica, time 18-24 hrs
[11] = tested on: Staphylococcus epidermidis; test: Antimicrobial activity against Staphylococcus epidermidis 12228 assessed as absence bacterial growth measured after 18 to 24 hrs incubation by NCCLS method; assay type: functional; conditions: time 18-24 hrs
Salmonella typhimurium [12] = test: Antimicrobial activity against Salmonella typhimurium 14028 assessed as bacterial killing measured after 16 hrs incubation; assay type: functional, Salmonella enterica subsp. enterica serovar Typhimurium; conditions: Salmonella enterica
Escherichia coli [13] = test: Antimicrobial activity against Escherichia coli 25922 assessed as absence bacterial growth measured after 18 to 24 hrs incubation in presence of MgCl2 by NCCLS method; assay type: functional; conditions: time 18-24 hrs
Escherichia coli [14] = test: Antimicrobial activity against Escherichia coli 25922 assessed as absence bacterial growth measured after 18 to 24 hrs incubation in presence of 50% serum by NCCLS method; assay type: functional; conditions: time 18-24 hrs
Pseudomonas aeruginosa [15] = test: Antimicrobial activity against Pseudomonas aeruginosa 27853 assessed as absence bacterial growth measured after 18 to 24 hrs incubation by NCCLS method; assay type: functional; conditions: time 18-24 hrs
Enterococcus faecalis [16] = test: Antimicrobial activity against Enterococcus faecalis 29212 assessed as bacterial killing measured after 16 hrs incubation; assay type: functional
Pseudomonas aeruginosa [17] = test: Antimicrobial activity against Pseudomonas aeruginosa 27853 assessed as bacterial killing measured after 16 hrs incubation; assay type: functional
Salmonella typhimurium [18] = test: Antimicrobial activity against Salmonella typhimurium C7731 assessed as bacterial killing measured after 16 hrs incubation; assay type: functional, Salmonella enterica subsp. enterica serovar Typhimurium; conditions: Salmonella enterica
Staphylococcus aureus [19] = test: Antimicrobial activity against Methicillin-resistant Staphylococcus aureus 43300 assessed as bacterial killing measured after 16 hrs incubation; assay type: functional
Escherichia coli [20] = test: Antimicrobial activity against Escherichia coli 25922 assessed as absence bacterial growth measured after 18 to 24 hrs incubation in presence of ZnCl2 by NCCLS method; assay type: functional; conditions: time 18-24 hrs
Staphylococcus aureus [21] = test: Antimicrobial activity against Staphylococcus aureus 29213 assessed as absence bacterial growth measured after 18 to 24 hrs incubation by NCCLS m; assay type: functional; conditions: time 18-24 hrs
Bacillus cereus [22] = test: Antimicrobial activity against Bacillus cereus 1.932 assessed as bacterial killing measured after 16 hrs incubation; assay type: functional
Erythrocyte = test: Hemolytic activity in human RBC at effective concentration measured after 1 hr by microplate reader analysis; assay type: toxicity, cell-based
Escherichia coli [23] = test: Antimicrobial activity against Escherichia coli 25922 assessed as bacterial killing measured after 16 hrs incubation; assay type: functional
Escherichia coli [24] = test: Antimicrobial activity against Escherichia coli 25922 assessed as absence bacterial growth measured after 18 to 24 hrs incubation in presence of 12.5% serum by NCCLS method; assay type: functional; conditions: time 18-24 hrs
Listeria monocytogenes [25] = test: Antimicrobial activity against Listeria monocytogenes 1.10753 assessed as bacterial killing measured after 16 hrs incubation; assay type: functional
Escherichia coli [26] = test: Antimicrobial activity against Escherichia coli K88 assessed as bacterial killing measured after 16 hrs incubation; assay type: functional
[27] = Cytotoxicity against porcine IPEC-J2 cells assessed as cell survival rate measured after 8 hrs by MTT assay; assay type: toxicity, cell-based, Sus scrofa; conditions: pig
Acinetobacter baumannii [28] = test: Antimicrobial activity against Acinetobacter baumannii 1.6769 assessed as bacterial killing measured after 16 hrs incubation; assay type: functional
Staphylococcus aureus [29] = test: Antimicrobial activity against Staphylococcus aureus 29213 assessed as absence bacterial growth measured after 18 to 24 hrs incubation by NCCLS method; assay type: functional; conditions: time 18-24 hrs
[30] = Cytotoxicity against mouse RAW264.7 cells assessed as cell survival rate measured after 8 hrs by MTT assay; assay type: toxicity, cell-based
Escherichia coli [31] = test: Antimicrobial activity against Escherichia coli 25922 assessed as absence bacterial growth measured after 18 to 24 hrs incubation in presence of NaCl by NCCLS method; assay type: functional; conditions: time 18-24 hrs
Escherichia coli [32] = test: Antimicrobial activity against Escherichia coli 25922 assessed as absence bacterial growth measured after 18 to 24 hrs incubation in presence of NH4Cl by NCCLS method; assay type: functional; conditions: time 18-24 hrs
Escherichia coli [33] = test: Antimicrobial activity against Escherichia coli 25922 assessed as absence bacterial growth measured after 18 to 24 hrs incubation in presence of 25% serum by NCCLS method; assay type: functional; conditions: time 18-24 hrs
[34] = Antimicrobial activity against Salmonella pullorum C7913 assessed as bacterial killing measured after 16 hrs incubation; assay type: functional, Salmonella enterica subsp. enterica serovar Pullorum; conditions: Salmonella enterica
[35] = Antimicrobial activity against Salmonella pullorum C7913 assessed as absence bacterial growth measured after 18 to 24 hrs incubation by NCCLS method; assay type: functional, Salmonella enterica subsp. enterica serovar Pullorum; conditions: Salmonella enterica, time 18-24 hrs
Bacillus cereus [36] = test: Antimicrobial activity against Bacillus cereus 1.932 assessed as absence bacterial growth measured after 18 to 24 hrs incubation by NCCLS method; assay type: functional; conditions: time 18-24 hrs
Enterococcus faecalis [37] = test: Antimicrobial activity against Enterococcus faecalis 29212 assessed as absence bacterial growth measured after 18 to 24 hrs incubation by NCCLS method; assay type: functional; conditions: time 18-24 hrs
Salmonella typhimurium [38] = test: Antimicrobial activity against Salmonella typhimurium C7731 assessed as absence bacterial growth measured after 18 to 24 hrs incubation by NCCLS method; assay type: functional, Salmonella enterica subsp. enterica serovar Typhimurium; conditions: Salmonella enterica, time 18-24 hrs
Staphylococcus aureus [39] = test: Antimicrobial activity against Methicillin-resistant Staphylococcus aureus 43300 assessed as absence bacterial growth measured after 18 to 24 hrs incubation by NCCLS method; assay type: functional; conditions: time 18-24 hrs
[40] = Cytotoxicity against human HEK-293T cells assessed as cell survival rate measured after 8 hrs by MTT assay; assay type: toxicity, cell-based
Staphylococcus aureus [41] = test: Antimicrobial activity against Staphylococcus aureus 29213 assessed as bacterial killing measured after 16 hrs incubation; assay type: functional

H-AKLWLKGGKLWLKGGKLWLKG-NH2
MIC (Escherichia coli [1]): 4 µM | hemolysis at 1 h, 128 µM [2]: < 10% | MIC (Listeria monocytogenes [3]): > 32 µM | MBC [4]: > 32 µM | MIC (Escherichia coli [5]): 1 µM | MIC (Escherichia coli [6]): 4 µM | MBC (Staphylococcus aureus [7]): > 32 µM | MIC (Escherichia coli [8]): 4 µM | MIC (Acinetobacter baumannii [9]): 16 µM | MIC (Salmonella typhimurium [10]): 4 µM | MIC [11]: > 32 µM | MBC (Salmonella typhimurium [12]): 16 µM | MIC (Escherichia coli [13]): 16 µM | MIC (Escherichia coli [14]): > 32 µM | MIC (Pseudomonas aeruginosa [15]): > 32 µM | MBC (Enterococcus faecalis [16]): > 32 µM | MBC (Pseudomonas aeruginosa [17]): > 32 µM | MBC (Salmonella typhimurium [18]): 32 µM | MBC (Staphylococcus aureus [19]): > 32 µM | MIC (Escherichia coli [20]): 4 µM | MIC (Staphylococcus aureus [21]): > 32 µM | MBC (Bacillus cereus [22]): > 32 µM | HC10 (Erythrocyte): > 128 µM | MBC (Escherichia coli [23]): 8 µM | MIC (Escherichia coli [24]): > 32 µM | MBC (Listeria monocytogenes [25]): > 32 µM | MBC (Escherichia coli [26]): 1 µM | IC50 at 8 h [27]: > 64 µM | MBC (Acinetobacter baumannii [28]): 16 µM | MIC (Staphylococcus aureus [29]): > 32 µM | IC50 at 8 h [30]: > 64 µM | MIC (Escherichia coli [31]): > 32 µM | MIC (Escherichia coli [32]): 4 µM | MIC (Escherichia coli [33]): > 32 µM | MBC [34]: 2 µM | MIC [35]: 2 µM | MIC (Bacillus cereus [36]): > 32 µM | MIC (Enterococcus faecalis [37]): > 32 µM | MIC (Salmonella typhimurium [38]): 16 µM | MIC (Staphylococcus aureus [39]): > 32 µM | IC50 at 8 h [40]: > 64 µM | MBC (Staphylococcus aureus [41]): > 32 µM

H-GKLWLKGVKLWLKGGKLWLKG-NH2
MIC (Escherichia coli [1]): 1 µM | MIC (Listeria monocytogenes [3]): > 32 µM | MBC [4]: 4 µM | MIC (Escherichia coli [5]): 0.5 µM | MIC (Escherichia coli [6]): 1 µM | MBC (Staphylococcus aureus [7]): 4 µM | MIC (Escherichia coli [8]): 1 µM | MIC (Acinetobacter baumannii [9]): 1 µM | MIC (Salmonella typhimurium [10]): 2 µM | MIC [11]: 2 µM | MBC (Salmonella typhimurium [12]): 2 µM | MIC (Escherichia coli [13]): 4 µM | MIC (Escherichia coli [14]): > 32 µM | MIC (Pseudomonas aeruginosa [15]): 4 µM | MBC (Enterococcus faecalis [16]): 4 µM | MBC (Pseudomonas aeruginosa [17]): 4 µM | MBC (Salmonella typhimurium [18]): 8 µM | MBC (Staphylococcus aureus [19]): 2 µM | MIC (Escherichia coli [20]): 1 µM | MIC (Staphylococcus aureus [21]): 2 µM | MBC (Bacillus cereus [22]): 4 µM | HC10 (Erythrocyte): 128 µM | MBC (Escherichia coli [23]): 1 µM | MIC (Escherichia coli [24]): 16 µM | MBC (Listeria monocytogenes [25]): > 32 µM | MBC (Escherichia coli [26]): 0.5 µM | IC50 at 8 h [27]: 8.73 µM | MBC (Acinetobacter baumannii [28]): 4 µM | MIC (Staphylococcus aureus [29]): 4 µM | IC50 at 8 h [30]: 61.3 µM | MIC (Escherichia coli [31]): 4 µM | MIC (Escherichia coli [32]): 1 µM | MIC (Escherichia coli [33]): > 32 µM | MBC [34]: 0.5 µM | MIC [35]: 0.5 µM | MIC (Bacillus cereus [36]): 4 µM | MIC (Enterococcus faecalis [37]): 4 µM | MIC (Salmonella typhimurium [38]): 4 µM | MIC (Staphylococcus aureus [39]): 2 µM | IC50 at 8 h [40]: > 64 µM | MBC (Staphylococcus aureus [41]): 4 µM

H-GKLWLKGWKLWLKGGKLWLKG-NH2
MIC (Escherichia coli [1]): 1 µM | MIC (Listeria monocytogenes [3]): > 32 µM | MBC [4]: 4 µM | MIC (Escherichia coli [5]): 1 µM | MIC (Escherichia coli [6]): 1 µM | MBC (Staphylococcus aureus [7]): 8 µM | MIC (Escherichia coli [8]): 1 µM | MIC (Acinetobacter baumannii [9]): 2 µM | MIC (Salmonella typhimurium [10]): 2 µM | MIC [11]: 2 µM | MBC (Salmonella typhimurium [12]): 4 µM | MIC (Escherichia coli [13]): 2 µM | MIC (Escherichia coli [14]): 32 µM | MIC (Pseudomonas aeruginosa [15]): 2 µM | MBC (Enterococcus faecalis [16]): 4 µM | MBC (Pseudomonas aeruginosa [17]): 4 µM | MBC (Salmonella typhimurium [18]): 8 µM | MBC (Staphylococcus aureus [19]): 4 µM | MIC (Escherichia coli [20]): 1 µM | MIC (Staphylococcus aureus [21]): 4 µM | MBC (Bacillus cereus [22]): 4 µM | HC10 (Erythrocyte): 32 µM | MBC (Escherichia coli [23]): 1 µM | MIC (Escherichia coli [24]): 16 µM | MBC (Listeria monocytogenes [25]): > 32 µM | MBC (Escherichia coli [26]): 1 µM | IC50 at 8 h [27]: 3.9 µM | MBC (Acinetobacter baumannii [28]): 2 µM | MIC (Staphylococcus aureus [29]): 2 µM | IC50 at 8 h [30]: 53.5 µM | MIC (Escherichia coli [31]): 2 µM | MIC (Escherichia coli [32]): 2 µM | MIC (Escherichia coli [33]): 32 µM | MBC [34]: 1 µM | MIC [35]: 1 µM | MIC (Bacillus cereus [36]): 1 µM | MIC (Enterococcus faecalis [37]): 2 µM | MIC (Salmonella typhimurium [38]): 2 µM | MIC (Staphylococcus aureus [39]): 2 µM | IC50 at 8 h [40]: 61.9 µM | MBC (Staphylococcus aureus [41]): 4 µM
